Data as given in US12329745B2, “Methods and compositions for treating glucocorticoid excess” (Sparrow Pharmaceuticals, Inc., priority 2022, dated 2025).

Key:
[1] = Phase 2 trial 3662-CL-0049 in painful diabetic peripheral neuropathy: TC, glucose, HbA1c, TG; type: in vivo, human
Protocol: Analyses of covariance were conducted to analyze total cholesterol (TC), glucose, glycated hemoglobin (HbA1c), and triglycerides (TG), with baseline value as the covariate and a baseline*treatment interaction term, in patients with painful diabetic peripheral neuropathy following daily administration of SPI-62 or placebo. Data were obtained from study 3662-CL-0049, a Phase 2 randomized, double-blind, placebo- and active-controlled clinical trial of the safety and efficacy of SPI-62 in subjects with painful diabetic peripheral neuropathy.

[2] = biological target: T1, human HSD-1 expressed in CHO cells (Homo sapiens, UniProt P28845); test: Inhibition of human HSD-1 expressed in CHO cells; type: cell-based
T1 construct: expressed in transfected cells; host or cells: CHO cells
T1 sequence (P28845 whole entry): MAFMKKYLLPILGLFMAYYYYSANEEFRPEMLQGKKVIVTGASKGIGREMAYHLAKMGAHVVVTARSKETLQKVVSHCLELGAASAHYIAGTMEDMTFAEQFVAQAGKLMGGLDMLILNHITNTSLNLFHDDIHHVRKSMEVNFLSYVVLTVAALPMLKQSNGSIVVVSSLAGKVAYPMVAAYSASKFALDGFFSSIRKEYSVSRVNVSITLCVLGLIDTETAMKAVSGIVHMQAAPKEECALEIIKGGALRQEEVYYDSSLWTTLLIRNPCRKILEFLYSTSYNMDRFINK

HSD-1 [3] = biological target: T2, HSD-1 (Homo sapiens, UniProt P28845); test: Surface plasmon resonance binding kinetics in presence of NADPH (residence time); details: 300 μM NADPH; reciprocal of the dissociation rate constant; read-out: Residence Time (converted)
T2 sequence (P28845 whole entry): as above
Source text: Pseudo-irreversible HSD-1 inhibitors can be identified via in vitro enzyme kinetics evaluation, in which they are expected to show longer enzyme residence times compared to other HSD-1 inhibitors. Surface plasmon resonance (SPR) is the resonant oscillation of conduction electrons at the interface between negative and positive permittivity material stimulated by incident light. When a protein is bound to a surface, SPR can be used to detect ligand binding to the protein. […] Association and dissociation of test compounds were monitored in the presence of 300 µM NADPH throughout the experiment.

HSD-1 [4] = biological target: T2, HSD-1; details: both, in vivo
liver HSD-1 = liver HSD-1 (Homo sapiens, UniProt P28845); test: Urinary HSD-1 ratio (tetrahydrocortisol+allotetrahydrocortisol)/tetrahydrocortisone; type: in vivo; parameters: from tissue; host or cells: human liver in vivo, read through urinary steroid metabolites; details: for mean urinary HSD-1 ratio, reduction from baseline: 0.7 mg daily
liver HSD-1, sequence (P28845 whole entry): as above
Source text: The tetrahydro metabolites are rapidly and extensively excreted in urine. […] Continued adrenal synthesis provides a circulating pool of cortisol, the free fraction of which (˜5%) enters cells. That prevents the urinary HSD-1 ratio from dropping below approximately 0.1.

brain HSD-1 = biological target: T3, brain HSD-1 (Homo sapiens, UniProt P28845); test: Brain HSD-1 occupancy by PET, competition with [11C]AS2471907; type: in vivo; details: single dose 3 mg
T3 construct: Brain HSD-1 occupancy following a single dose of SPI-62 3 mg; from tissue; host or cells: brain in vivo
T3 sequence (P28845 whole entry): as above
Protocol: Brain HSD-1 occupancy following a single dose of SPI-62 3 mg, assessed by competition with the HSD-1-specific PET ligand [^11C]AS2471907, was 84-90% at 3.3 to 25 hours, 56-83% at 42 to 46 hours, 36 to 45% at 139 hours, and 26% at 189 hours. The pharmacologic half-life of SPI-62 in brain is, as expected, shorter than that in liver.

[5] = test system: urine tetrahydrocortisone; test: Urine tetrahydrocortisone (excreted cortisone metabolite; liver cortisone levels); type: in vivo, human; details: healthy adults
Protocol: In healthy adults administered a single dose of 10, 20, or 50 mg SPI-62 (n=40), the least squares mean (standard error) tetrahydrocortisone was 32.71 (1.149) […] compared to 9.19 (2.300) mol after a single dose of matching placebo (n=10). In the same subjects after 14 daily doses, tetrahydrocortisone was 42.73 (1.968) mol for SPI-62 and 8.51 (0.410) mol for placebo. Similar results were also observed in elderly adults.

[6] = Clinical effective daily dose and side effects of HSD-1 inhibitors; details: human, in vivo
Protocol: Pseudo-irreversible HSD-1 inhibitors might have additional advantages over other HSD-1 inhibitors. For example, with durable pharmacologic effect, pseudo-irreversible HSD-1 inhibitors are more amenable to less than daily dosing including depot formulations and less likely to show decreased efficacy based on imperfect patient compliance. Additionally, HSD-1 in the human body appears to become completely occupied with approximately 3 mg of a potent small molecule inhibitor. Because pseudo-irreversible inhibitors, once bound, distribute only slowly off HSD-1 a low chronic dose is possible. Several pseudo-irreversible HSD-1 inhibitors, such as SPI-62, ABT-384, MK-0736, and MK-0916, have effective dose ranges below 10 mg daily.

Compound: Cn1c(-c2ccc(C(N)=O)cc2F)nnc1C(C)(C)Oc1c(F)cc(Cl)cc1F [SPI-62, 4-(5-(2-(4-chloro-2,6-difluorophenoxy)propan-2-yl)-4-methyl-4H-1,2,4-triazol-3-yl)-3-fluorobenzamide]
- Glucose, least squares mean (standard error) ([1]; Week 6/EOT): 7.61 (0.556) mmol/L
- HbA1c, least squares mean (standard error) ([1]; Week 6/EOT): 7.1%
- TG, least squares mean (standard error) ([1]; Week 6/EOT): 1.68 (0.202) mmol/L
- TC, least squares mean (standard error) ([1]; Week 6/EOT, N = 36): 3.95 (0.120) mmol/L
- Glucose, least squares mean (standard error) ([1]; Week 8/EOS): 7.78 (0.546) mmol/L
- HbA1c, least squares mean (standard error) ([1]; Week 8/EOS): 7.02%
- TC, least squares mean (standard error) ([1]; Week 8/EOS): 4.16 (0.105) mmol/L
- TG, least squares mean (standard error) ([1]; Week 8/EOS): 1.63 (0.113) mmol/L
- Ki [2]: 12.6 nM
- residence time (HSD-1 [3]): 8.92 min
- total target amount in the central compartment (RTOT) (HSD-1 [4]): 7.84 µM
- mean reduction of the urinary HSD-1 ratio from baseline (liver HSD-1; 0.2 mg daily for 14 days, last dosing day): 87%
- time after the last dose with incomplete return of urinary HSD-1 ratio to baseline (liver HSD-1; healthy adults): more than 2 weeks
- mean urinary HSD-1 ratio, reduction from baseline (liver HSD-1; healthy adults, 16±2 days after cessation): 55%
- mean urinary HSD-1 ratio, reduction from baseline (liver HSD-1; healthy adults, last dosing day): 84%
- mean urinary HSD-1 ratio (liver HSD-1; patients, 10 mg daily for 6 weeks, 2 weeks after the last dose): 0.33
- mean urinary HSD-1 ratio (liver HSD-1; patients, 10 mg daily for 6 weeks, last dosing day): 0.13
- mean urinary HSD-1 ratio (liver HSD-1; single 1 mg dose, urine 0 to 6 hours post-dose): 0.694
- mean urinary HSD-1 ratio (liver HSD-1; single 1 mg dose, urine 6 to 12 hours post-dose): 0.471
- mean urinary HSD-1 ratio (liver HSD-1; single 1 mg dose, urine 12 to 24 hours post-dose): 0.472
- mean urinary HSD-1 ratio (liver HSD-1; single 1 mg dose, urine 24 to 48 hours post-dose): 0.522
- mean urinary HSD-1 ratio (liver HSD-1; single 1 mg dose, urine 48 to 72 hours post-dose): 0.618
- mean difference v placebo of the urinary HSD-1 ratio (liver HSD-1; single dose 1 mg): 51%
- brain HSD-1 occupancy (brain HSD-1; 3.3 to 25 hours): 84-90%
- brain HSD-1 occupancy (brain HSD-1; 42 to 46 hours): 56-83%
- urine tetrahydrocortisone, least squares mean (standard error) ([5]; after 14 daily doses): 42.73 (1.968) mol
- urine tetrahydrocortisone, least squares mean (standard error) ([5]; single dose of 10, 20, or 50 mg (n=40)): 32.71 (1.149) mol
- effective dose range [6]: below 10 mg daily
